Results: PubChem BioAssay (NCI)
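Following 48 hours of exposure in 96-well plates, responses at five concentrations were used to interpolate endpoints linearly. The concentration for full growth arrest is given as TGI.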

How the values were obtained:
Test in all cases: NCI-60 cell line screen, 48 h
A498 renal = system: A498 renal
BT-549 breast = system: BT-549 breast
CAKI-1 renal = system: CAKI-1 renal
CCRF-CEM leukemia = system: CCRF-CEM leukemia
COLO 205 colon = system: COLO 205 colon
DU-145 prostate = system: DU-145 prostate
HCT-116 colon = system: HCT-116 colon
HCT-15 colon = system: HCT-15 colon
HL-60(TB) leukemia = system: HL-60(TB) leukemia
HOP-62 NSCLC = system: HOP-62 NSCLC
HOP-92 NSCLC = system: HOP-92 NSCLC
HT29 colon = system: HT29 colon
IGROV1 ovarian = system: IGROV1 ovarian
K-562 leukemia = system: K-562 leukemia
KM12 colon = system: KM12 colon
LOX IMVI melanoma = system: LOX IMVI melanoma
M14 melanoma = system: M14 melanoma
MALME-3M melanoma = system: MALME-3M melanoma
MCF7 breast = system: MCF7 breast
MDA-MB-231 breast = system: MDA-MB-231 breast
MDA-MB-435 = system: MDA-MB-435
MDA-N = system: MDA-N
MOLT-4 leukemia = system: MOLT-4 leukemia
NCI-H226 lung = system: NCI-H226 lung
NCI-H23 lung = system: NCI-H23 lung
NCI-H460 lung = system: NCI-H460 lung
NCI/ADR-RES ovarian = system: NCI/ADR-RES ovarian
OVCAR-3 ovarian = system: OVCAR-3 ovarian
OVCAR-4 ovarian = system: OVCAR-4 ovarian
OVCAR-5 ovarian = system: OVCAR-5 ovarian
OVCAR-8 ovarian = system: OVCAR-8 ovarian
PC-3 prostate = system: PC-3 prostate
RPMI-8226 leukemia = system: RPMI-8226 leukemia
RXF 393 renal = system: RXF 393 renal
SF-295 CNS = system: SF-295 CNS
SK-MEL-2 melanoma = system: SK-MEL-2 melanoma
SK-MEL-28 melanoma = system: SK-MEL-28 melanoma
SK-OV-3 ovarian = system: SK-OV-3 ovarian
SN12C renal = system: SN12C renal
SNB-19 CNS = system: SNB-19 CNS
SR leukemia = system: SR leukemia
SW-620 colon = system: SW-620 colon
T-47D breast = system: T-47D breast
TK-10 renal = system: TK-10 renal
U251 CNS = system: U251 CNS
UACC-257 melanoma = system: UACC-257 melanoma
UACC-62 melanoma = system: UACC-62 melanoma
UO-31 renal = system: UO-31 renal
786-0 renal = system: 786-0 renal
A549 NSCLC = system: A549 NSCLC
ACHN renal = system: ACHN renal
EKVX NSCLC = system: EKVX NSCLC
HCC-2998 colon = system: HCC-2998 colon
NCI-H522 lung = system: NCI-H522 lung
SK-MEL-5 melanoma = system: SK-MEL-5 melanoma
SNB-75 CNS = system: SNB-75 CNS

Measured: TGI

CC(C)(C)[Si](C)(C)OCC1OC(n2cnc3c(N)ncnc32)CC1OS(C)(=O)=O (centres undefined)
17.3 µM: HOP-92 NSCLC
not listed: 786-0 renal | A549 NSCLC | ACHN renal | EKVX NSCLC | HCC-2998 colon | NCI-H522 lung | SK-MEL-5 melanoma | SNB-75 CNS
> 100 µM: all other assays above

COc1ccc([C@]23CCN(S(=O)(=O)c4ccc(C)cc4)[C@H]2[C@H](CO)C2(CC3)OCC(C)(C)CO2)cc1OC
> 100 µM: all assays above
